Patent US7452505B2, “Method for analyzing blood test sample and dry analytical element and analytical kit utilizing the method” (Fujifilm Corporation, priority 2002, dated 2008)

System: blood platelet-rich plasma
Assay: Evaluation of LDH activity of blood platelet-rich plasma samples with surfactant (JSCC transferable method)
Assay type: cell-based, human
Conditions: sample with 0.6% of surfactant, sample without surfactant taken as 100; 37° C.
Description: (2) Evaluation of LDH Activity
In Table 2, “LDH activity” means the activity of the test sample with 0.6% of surfactant, assuming that that of the test sample without surfactant to be 100.

Compound | LDH Activity
C[C@H](CCC(=O)O)[C@H]1CC[C@H]2[C@@H]3CC[C@@H]4C[C@H](O)CC[C@]4(C)[C@H]3C[C@H](O)[C@]12C [deoxycholic acid, reference compound] | 199
POE (5) oleylether [EMALEX 505] | 295
POE (6) perfluoroalkyl ethoxylate [Example F-1405] | 102
POE (10) octylether [Nissan Nonion] | 694
POE (10) perfluoroalkyl [Example F-142D] | 104
POE (12) oleylether [EMALEX 512] | 307
POE (20) oleylether [EMALEX 520] | 297
sodium α-olefin sufonate [NIKKOL OS-14] | 212
